Results on 15 molecules are retold here after US11034672B1, “Tyrosine kinase inhibitor compositions, methods of making and methods of use” (Black Diamond Therapeutics, Inc., priority 2018, dated 2021).

Common to all, as to format: cell-based
Assay [1] concerns the target T1, HER2 YVMA (Homo sapiens, UniProt P04626, INS775YVMA).
T1 construct: expressed in transfected cells; host or cells: BaF3 (murine pro-B)
The assay can be described thus: BaF3 cell proliferation assay, HER2 YVMA (Table B). As to conditions: potency code, 3 days, CellTiterGlo, read-out: HER2 YVMA (Activity for Inhibiting HER2). For orientation: ATP-based viability assays read luminescence as a measure of living cells.

Assay [2] addresses T2, EGFR WT (Homo sapiens, UniProt P00533). The assay can be described thus: BaF3 cell proliferation assay, EGFR WT (Table A). The conditions noted are these: potency code, 3 days, CellTiterGlo, read-out: EGFR WT (Activity for Inhibiting EGFR). The essentials: (§1)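 EC50 values come from proliferation of IL-3-independent BaF3 lines. These lines were made by two spin infections with retrovirus encoding each mutant, plus polybrene (8 μg/ml). They then underwent one week of 10 μg/ml blasticidin selection and were removed from IL-3.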

In assay [3] the target is T3, HER2 S310F (Homo sapiens, UniProt P04626, S310F).
T3 construct: expressed in transfected cells; host or cells: BaF3 (murine pro-B)
T3 sequence (P04626 23-1255 S310F): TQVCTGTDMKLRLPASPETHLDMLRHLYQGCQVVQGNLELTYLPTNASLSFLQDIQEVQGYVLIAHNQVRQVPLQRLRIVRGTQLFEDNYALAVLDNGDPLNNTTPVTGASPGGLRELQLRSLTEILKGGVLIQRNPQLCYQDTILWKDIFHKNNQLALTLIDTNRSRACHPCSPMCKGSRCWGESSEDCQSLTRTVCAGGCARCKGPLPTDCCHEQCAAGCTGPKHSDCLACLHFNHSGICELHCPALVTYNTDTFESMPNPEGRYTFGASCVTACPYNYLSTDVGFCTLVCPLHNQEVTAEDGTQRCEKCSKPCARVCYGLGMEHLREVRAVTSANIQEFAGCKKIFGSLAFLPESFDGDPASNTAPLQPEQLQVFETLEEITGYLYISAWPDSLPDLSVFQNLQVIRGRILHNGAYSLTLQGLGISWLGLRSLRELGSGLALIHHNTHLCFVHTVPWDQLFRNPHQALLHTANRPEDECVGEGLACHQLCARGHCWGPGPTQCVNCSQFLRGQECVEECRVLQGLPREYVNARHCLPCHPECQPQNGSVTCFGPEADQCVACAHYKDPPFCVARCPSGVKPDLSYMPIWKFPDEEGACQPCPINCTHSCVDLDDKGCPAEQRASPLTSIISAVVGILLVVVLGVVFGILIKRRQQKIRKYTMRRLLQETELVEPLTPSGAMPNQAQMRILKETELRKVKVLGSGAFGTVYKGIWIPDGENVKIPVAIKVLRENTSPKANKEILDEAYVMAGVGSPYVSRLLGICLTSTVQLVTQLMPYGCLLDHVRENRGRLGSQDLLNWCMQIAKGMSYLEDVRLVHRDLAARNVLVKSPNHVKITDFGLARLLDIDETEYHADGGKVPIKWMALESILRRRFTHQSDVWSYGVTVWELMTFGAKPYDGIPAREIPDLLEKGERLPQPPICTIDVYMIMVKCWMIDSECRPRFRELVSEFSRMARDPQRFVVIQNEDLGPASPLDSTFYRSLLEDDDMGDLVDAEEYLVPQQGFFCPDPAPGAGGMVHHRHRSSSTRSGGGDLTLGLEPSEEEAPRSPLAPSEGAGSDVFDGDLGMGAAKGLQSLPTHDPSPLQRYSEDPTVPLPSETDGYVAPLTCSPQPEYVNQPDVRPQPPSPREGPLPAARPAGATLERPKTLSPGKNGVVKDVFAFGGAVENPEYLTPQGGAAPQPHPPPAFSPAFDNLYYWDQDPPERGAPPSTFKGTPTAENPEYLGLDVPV
The assay can be described thus: BaF3 cell proliferation assay, HER2 S310F (Table B). As to conditions: potency code, 3 days, CellTiterGlo, read-out: HER2 S310F (Activity for Inhibiting HER2).

Assay [4] has as its target T4, HER2 WT (Homo sapiens, UniProt P04626). The assay can be described thus: Activity for inhibiting HER2 (Table B), HER2 WT.
In assay [5] the target is T1, HER2 YVMA. The assay can be described thus: Activity for inhibiting HER2 (Table B), HER2 YVMA. As to conditions: read-out: HER2 YVMA, potency code (IC50). As to the method:
(§2) EC50 values were determined with the same application.

Assay [6] has as its target T5, EGFR V3 (Homo sapiens, UniProt P00533, DELINS30-297G).
T5 construct: expressed in transfected cells; host or cells: BaF3 (murine pro-B), retroviral pMXs-IRES-Blasticidin
The assay can be described thus: BaF3 cell proliferation assay, EGFR V3 (Table A). As to conditions: potency code, 3 days, CellTiterGlo, read-out: EGFR V3 (Activity for Inhibiting EGFR). An outline of the steps:
as §1

The target of assay [7] is T3, HER2 S310F. The experiment in a line: Activity for inhibiting HER2 (Table B), HER2 S310F. As to conditions: read-out: HER2 S310F, potency code (IC50). How it is done: as §2
Assay [8] concerns the target T4, HER2 WT. The experiment in a line: BaF3 cell proliferation assay, HER2 WT (Table B). As to conditions: potency code, 3 days, CellTiterGlo, read-out: HER2 WT (Activity for Inhibiting HER2).
In assay [9] the target is T5, EGFR V3. The assay can be described thus: Activity for inhibiting EGFR (Table A), EGFR V3 (EGFR-Viii). The conditions noted are these: read-out: EGFR V3, potency code (IC50).
Assay [10] addresses T2, EGFR WT. The experiment in a line: Activity for inhibiting EGFR (Table A), EGFR WT. As to conditions: read-out: EGFR WT, potency code (IC50).
[11] abbreviates: Table B, read-out: HER2 WT, potency code (IC50).
The mark [12] stands for this setting: text lists of compounds, read-out: IC50 value for inhibiting wild-type HER2.

pIC50: −log10 of the molar value. Some results are limits rather than exact numbers.

T2 sequence (P00533 25-1210 N540K): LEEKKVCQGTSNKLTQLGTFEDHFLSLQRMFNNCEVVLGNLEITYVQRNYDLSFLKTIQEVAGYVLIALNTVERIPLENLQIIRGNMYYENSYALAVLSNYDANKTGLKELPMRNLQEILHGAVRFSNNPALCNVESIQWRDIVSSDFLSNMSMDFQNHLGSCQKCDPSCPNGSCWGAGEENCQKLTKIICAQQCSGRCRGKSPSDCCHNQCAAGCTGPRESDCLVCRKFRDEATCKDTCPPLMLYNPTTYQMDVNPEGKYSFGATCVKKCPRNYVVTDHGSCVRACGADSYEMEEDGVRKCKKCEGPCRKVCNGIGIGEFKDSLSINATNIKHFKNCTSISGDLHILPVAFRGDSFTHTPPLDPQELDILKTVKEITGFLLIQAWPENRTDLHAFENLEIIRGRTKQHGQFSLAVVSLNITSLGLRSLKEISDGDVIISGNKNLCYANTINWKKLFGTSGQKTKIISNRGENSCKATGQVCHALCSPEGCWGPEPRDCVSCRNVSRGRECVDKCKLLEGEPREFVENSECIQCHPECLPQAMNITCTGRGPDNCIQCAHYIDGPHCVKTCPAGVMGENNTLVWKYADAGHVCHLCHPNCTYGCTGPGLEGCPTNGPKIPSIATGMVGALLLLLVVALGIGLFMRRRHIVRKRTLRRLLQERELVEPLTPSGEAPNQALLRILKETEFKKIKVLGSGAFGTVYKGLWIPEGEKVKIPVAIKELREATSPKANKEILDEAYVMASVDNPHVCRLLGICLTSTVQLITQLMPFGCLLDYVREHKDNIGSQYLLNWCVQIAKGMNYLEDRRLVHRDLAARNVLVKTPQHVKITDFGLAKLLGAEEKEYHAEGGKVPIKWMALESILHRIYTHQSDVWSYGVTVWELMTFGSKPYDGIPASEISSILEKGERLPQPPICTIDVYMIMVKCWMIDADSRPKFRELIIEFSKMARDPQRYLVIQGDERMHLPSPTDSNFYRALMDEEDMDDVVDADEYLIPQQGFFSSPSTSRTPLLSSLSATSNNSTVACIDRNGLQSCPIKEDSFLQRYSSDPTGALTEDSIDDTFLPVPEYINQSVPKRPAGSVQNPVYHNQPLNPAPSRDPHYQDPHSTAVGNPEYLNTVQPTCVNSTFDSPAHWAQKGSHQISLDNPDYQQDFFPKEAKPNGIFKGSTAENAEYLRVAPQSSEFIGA
T5 sequence (P00533 with tags, fused parts or gaps DELINS30-297G): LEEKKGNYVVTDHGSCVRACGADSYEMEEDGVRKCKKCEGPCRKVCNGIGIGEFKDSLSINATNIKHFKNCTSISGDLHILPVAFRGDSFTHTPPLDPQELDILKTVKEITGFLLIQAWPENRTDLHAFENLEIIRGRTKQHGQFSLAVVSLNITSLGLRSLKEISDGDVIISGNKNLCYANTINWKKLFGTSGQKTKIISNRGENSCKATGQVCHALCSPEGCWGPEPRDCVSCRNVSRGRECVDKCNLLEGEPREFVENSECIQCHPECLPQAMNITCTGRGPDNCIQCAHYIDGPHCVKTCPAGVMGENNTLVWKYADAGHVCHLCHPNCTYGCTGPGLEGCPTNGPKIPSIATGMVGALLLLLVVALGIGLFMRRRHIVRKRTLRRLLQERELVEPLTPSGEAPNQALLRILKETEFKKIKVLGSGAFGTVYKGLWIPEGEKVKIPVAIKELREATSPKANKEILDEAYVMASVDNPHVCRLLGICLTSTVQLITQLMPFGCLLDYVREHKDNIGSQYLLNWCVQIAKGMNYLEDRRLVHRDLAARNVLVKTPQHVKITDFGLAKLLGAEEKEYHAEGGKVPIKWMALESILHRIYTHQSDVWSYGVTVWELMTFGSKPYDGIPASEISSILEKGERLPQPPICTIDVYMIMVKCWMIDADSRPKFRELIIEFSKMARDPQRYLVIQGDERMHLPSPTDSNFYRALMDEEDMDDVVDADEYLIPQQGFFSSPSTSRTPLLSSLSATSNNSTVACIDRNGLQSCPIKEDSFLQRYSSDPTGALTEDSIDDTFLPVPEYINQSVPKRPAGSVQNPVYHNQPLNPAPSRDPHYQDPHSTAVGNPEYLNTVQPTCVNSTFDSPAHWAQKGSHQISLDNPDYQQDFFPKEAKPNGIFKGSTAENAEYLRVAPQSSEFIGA
T4 sequence (P04626 23-1255): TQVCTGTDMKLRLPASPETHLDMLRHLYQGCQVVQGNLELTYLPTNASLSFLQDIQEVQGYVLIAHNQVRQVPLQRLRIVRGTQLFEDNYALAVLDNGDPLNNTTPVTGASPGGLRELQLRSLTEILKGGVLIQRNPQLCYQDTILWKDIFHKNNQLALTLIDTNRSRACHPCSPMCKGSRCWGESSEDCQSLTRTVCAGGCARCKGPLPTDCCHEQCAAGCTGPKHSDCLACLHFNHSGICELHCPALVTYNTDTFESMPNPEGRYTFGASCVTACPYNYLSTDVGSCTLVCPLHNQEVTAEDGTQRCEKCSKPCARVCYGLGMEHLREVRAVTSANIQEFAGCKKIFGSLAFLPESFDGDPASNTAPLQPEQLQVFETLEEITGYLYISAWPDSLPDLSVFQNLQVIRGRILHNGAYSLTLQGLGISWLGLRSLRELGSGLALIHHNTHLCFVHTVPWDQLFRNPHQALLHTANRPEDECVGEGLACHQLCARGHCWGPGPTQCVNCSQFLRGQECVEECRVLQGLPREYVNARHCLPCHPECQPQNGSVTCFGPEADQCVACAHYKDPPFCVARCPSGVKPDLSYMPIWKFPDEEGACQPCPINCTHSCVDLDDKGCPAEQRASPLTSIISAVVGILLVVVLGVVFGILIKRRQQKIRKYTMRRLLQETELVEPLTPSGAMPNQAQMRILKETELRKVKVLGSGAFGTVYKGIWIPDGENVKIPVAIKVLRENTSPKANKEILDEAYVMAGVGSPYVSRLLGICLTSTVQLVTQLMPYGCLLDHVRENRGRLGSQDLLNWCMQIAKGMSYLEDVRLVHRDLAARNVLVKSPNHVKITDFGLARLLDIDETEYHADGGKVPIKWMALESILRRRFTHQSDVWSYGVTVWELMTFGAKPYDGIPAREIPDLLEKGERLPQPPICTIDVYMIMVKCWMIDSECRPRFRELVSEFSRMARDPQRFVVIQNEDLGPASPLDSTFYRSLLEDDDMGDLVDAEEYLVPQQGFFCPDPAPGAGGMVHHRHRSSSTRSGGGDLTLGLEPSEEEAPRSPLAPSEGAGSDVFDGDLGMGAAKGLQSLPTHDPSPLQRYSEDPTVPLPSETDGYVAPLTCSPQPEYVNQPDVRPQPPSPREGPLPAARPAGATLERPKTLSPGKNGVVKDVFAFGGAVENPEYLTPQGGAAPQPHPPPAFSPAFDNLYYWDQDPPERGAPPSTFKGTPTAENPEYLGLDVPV

Regarding `C=CC(=O)Nc1cc2c(Nc3ccc(OCc4ccccn4)c(Cl)c3)ncnc2cc1OCCn1ccnc1` [compound 10], the pIC50 is 6.52 to 6.70 in assay [1]; below 6.00 in assay [2]; 7.52 to 7.70 in [3]; 7.70 to 8.00 in assay [4] (setting [11]); at least 7.70 in assay [4] (setting [12]); 6.52 to 6.70 in assay [5]. Also, the pIC50 in assay [6] was 7.00 to 7.30; in assay [7], 7.52 to 7.70; in assay [8], 7.70 to 8.00; in assay [9], 7.00 to 7.30; in assay [10] it was below 6.00.

Turning to `C=CC(=O)Nc1cc2c(Nc3ccc(OCc4ccccn4)c(Cl)c3)ncnc2cc1OC1CCN(C)C1` (stereo not drawn) [compound 16], the pIC50 in assay [1] was 7.30 to 7.52; in assay [2], 6.52 to 6.70; in assay [3] it was 7.52 to 7.70; in assay [4] (setting [11]), above 8.30; in assay [4] (setting [12]) it was at least 8.30; in assay [5] it was 7.30 to 7.52. Besides, the pIC50 in assay [6] is 7.52 to 7.70; in assay [7], 7.52 to 7.70; in assay [8], above 8.30; in assay [9] it was 7.52 to 7.70; in assay [10], 6.52 to 6.70.

Regarding `C=CC(=O)Nc1cc2c(Nc3ccc(OCc4ccccn4)c(Cl)c3)ncnc2cc1O[C@H]1CCN(C)C1` [compound 18], the pIC50 in assay [1] is 7.00 to 7.30; in [2], 6.30 to 6.52; in assay [3] it was 7.52 to 7.70; in assay [4] (setting [11]), 8.00 to 8.30; in [4] (setting [12]), at least 8.00; in [5] it was 7.00 to 7.30. The pIC50 in assay [6] was 7.52 to 7.70; in assay [7] it was 7.52 to 7.70; in [8], 8.00 to 8.30; in assay [9] it was 7.52 to 7.70; in assay [10] it was 6.30 to 6.52.

With `C=CC(=O)Nc1cc2c(Nc3ccc(OCc4ccccn4)c(Cl)c3)ncnc2cc1OCCN1CCC(OC)C1` (stereo not drawn) [compound 29], the pIC50 in assay [1] was 7.00 to 7.30; in [2], 6.30 to 6.52; in assay [3] it was 7.70 to 8.00; in assay [4] (setting [11]), above 8.30; in assay [4] (setting [12]), at least 8.30; in assay [5], 7.00 to 7.30. Also, the pIC50 in assay [6] is 7.52 to 7.70; in assay [7] it was 7.70 to 8.00; in assay [8], above 8.30; in assay [9] it was 7.52 to 7.70; in assay [10] it was 6.30 to 6.52.

Take `C=CC(=O)Nc1cc2c(Nc3ccc(OCc4ccccn4)c(Cl)c3)ncnc2cc1OCCN1CCC(O)C1` (stereo not drawn) [compound 30]: the pIC50 is 6.70 to 7.00 in [1]; 6.30 to 6.52 in assay [2]; 7.70 to 8.00 in assay [3]; above 8.30 in assay [4] (setting [11]); at least 8.30 in [4] (setting [12]); 6.70 to 7.00 in assay [5]. The pIC50 in assay [6] is 7.30 to 7.52; in [7] it was 7.70 to 8.00; in assay [8] it was above 8.30; in assay [9] it was 7.30 to 7.52.

For `C=CC(=O)Nc1cc2c(Nc3ccc(OCc4ccccn4)c(Cl)c3)ncnc2cc1OCCN(C)CC` [compound 32], the pIC50 in assay [1] was 7.00 to 7.30; in assay [2] it was 6.30 to 6.52; in assay [3], 7.70 to 8.00; in assay [4] (setting [11]), above 8.30; in assay [4] (setting [12]), at least 8.30; in [5], 7.00 to 7.30. Further, the pIC50 in assay [6] was 7.52 to 7.70; in assay [7], 7.70 to 8.00; in [8] it was above 8.30; in assay [9], 7.52 to 7.70; in [10] it was 6.30 to 6.52.

Consider `C=CC(=O)Nc1cc2c(Nc3ccc(OCc4ccccn4)c(Cl)c3)ncnc2cc1OCCN1CC(F)C1` [compound 34], for which the pIC50 in [1] was 7.00 to 7.30; in [2] it was 6.00 to 6.30; in assay [3] it was 7.70 to 8.00; in assay [4] (setting [11]), 7.70 to 8.00; in assay [4] (setting [12]) it was at least 7.70; in [5], 7.00 to 7.30. Further, the pIC50 in [6] is 7.30 to 7.52; in assay [7], 7.70 to 8.00; in assay [8] it was 7.70 to 8.00; in assay [9] it was 7.30 to 7.52; in assay [10] it was 6.00 to 6.30.

For `C=CC(=O)Nc1cc2c(Nc3ccc(OCc4ccccn4)c(Cl)c3)ncnc2cc1OCCN1CC2(COC2)C1` [compound 38], the pIC50 in assay [1] is 7.00 to 7.30; in [2], 6.30 to 6.52; in [3] it was 7.52 to 7.70; in [4] (setting [11]), 8.00 to 8.30; in assay [4] (setting [12]) it was at least 8.00; in assay [5], 7.00 to 7.30. Besides, the pIC50 is 7.30 to 7.52 in assay [6]; 7.52 to 7.70 in assay [7]; 8.00 to 8.30 in assay [8]; 7.30 to 7.52 in [9]; 6.30 to 6.52 in assay [10].

For `C=CC(=O)Nc1cc2c(Nc3ccc(OCc4ccccn4)c(Cl)c3)ncnc2cc1N(C)C1CCN(C)C1` (stereo not drawn) [compound 48], the pIC50 was below 6.00 in assay [2]; 6.30 to 6.52 in assay [3]; 6.70 to 7.00 in [4] (setting [11]); 6.52 to 6.70 in assay [6]; 6.30 to 6.52 in [7]; 6.70 to 7.00 in [8]. Besides, the results for the pIC50 in assay [9] and in assay [10] were 6.52 to 6.70 and below 6.00, respectively.

`C=CC(=O)Nc1cc2c(Nc3ccc(OCc4ccccn4)c(Cl)c3)ncnc2cc1N1CC2CCN(C)C2C1` (stereo not drawn) [compound 49]: the pIC50 in assay [2] is below 6.00; in assay [3], 6.70 to 7.00; in [4] (setting [11]) it was 7.00 to 7.30; in assay [6], 6.70 to 7.00; in [7] it was 6.70 to 7.00; in assay [8], 7.00 to 7.30. For the same molecule, the pIC50 was 6.70 to 7.00 in assay [9] and below 6.00 in assay [10].

Take `C=CC(=O)Nc1cc2c(Nc3ccc(OCc4ccccn4)cn3)ncnc2cc1OCCN1CCOCC1` [compound 58]: the pIC50 in assay [2] is below 6.00; in assay [3] it was 6.30 to 6.52; in [4] (setting [11]), 6.70 to 7.00; in [6] it was 6.52 to 6.70; in assay [7], 6.30 to 6.52; in [8] it was 6.70 to 7.00. For the same molecule, the pIC50 in [9] is 6.52 to 6.70; in [10], below 6.00.

With `C=CC(=O)Nc1cc2c(Nc3ccc(OCc4ccccn4)cc3F)ncnc2cc1OC1CCN(C)C1` (stereo not drawn) [compound 59], the pIC50 is 6.30 to 6.52 in assay [2]; 6.70 to 7.00 in assay [3]; 7.30 to 7.52 in assay [4] (setting [11]); at least 7.30 in [4] (setting [12]); 7.30 to 7.52 in [6]; 6.70 to 7.00 in assay [7]. Moreover, the pIC50 is 7.30 to 7.52 in assay [8], 7.30 to 7.52 in assay [9] and 6.30 to 6.52 in assay [10].

For the molecule `C=CC(=O)Nc1cc2c(Nc3ccc(OCc4ccccn4)c(Cl)c3)ncnc2cc1C#CC(C)(C)N1CCN(C)CC1` [compound 65], the pIC50 in assay [1] is 7.00 to 7.30; in assay [2], 6.00 to 6.30; in assay [3], 7.70 to 8.00; in assay [4] (setting [11]), 7.70 to 8.00; in assay [4] (setting [12]), at least 7.70; in [5], 7.00 to 7.30. The pIC50 in assay [6] is 7.52 to 7.70; in [7], 7.70 to 8.00; in assay [8] it was 7.70 to 8.00; in [9], 7.52 to 7.70; in [10], 6.00 to 6.30.

As for `CC#CC(=O)Nc1cc2c(Nc3ccc(OCc4ccccn4)c(Cl)c3)ncnc2cc1OC1CCN(C)C1` (stereo not drawn) [compound 67], the pIC50 in assay [1] is 7.00 to 7.30; in assay [2] it was 6.70 to 7.00; in assay [3], 7.70 to 8.00; in [4] (setting [11]), 8.00 to 8.30; in assay [4] (setting [12]), at least 8.00; in assay [5], 7.00 to 7.30. Besides, the pIC50 in [6] was 7.52 to 7.70; in assay [7], 7.70 to 8.00; in assay [8], 8.00 to 8.30; in [9], 7.52 to 7.70; in [10] it was 6.70 to 7.00.

Regarding `C=CC(=O)Nc1cc2c(Nc3ccc(Oc4ccc(Cl)cc4)cc3)ncnc2cc1OCCN1CCOCC1` [compound 74], the pIC50 in [2] was below 6.00; in [3] it was 6.52 to 6.70; in assay [4] (setting [11]), 6.70 to 7.00; in [6], 7.00 to 7.30; in assay [7], 6.52 to 6.70; in assay [8], 6.70 to 7.00. The pIC50 was 7.00 to 7.30 in assay [9] and below 6.00 in [10].
